In PubChem BioAssay (NCI):
Values joined by “and” are separate entries in the source; they are usually repeats but may differ in a detail not shown here. Identical values can stand only once.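 Tested at 5 concentrations; 48 h exposure; 96-well plates; endpoints linearly interpolated, else capped at highest concentration. GI50 = concentration required for 50% inhibition of growth. TGI is the concentration that stops growth completely.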

How the values were obtained:
Assay in all cases: DTP human tumour cell line panel, 48 h
[1] = test system: 786-0 renal
[2] = test system: A498 renal
[3] = test system: A549 NSCLC
[4] = test system: ACHN renal
[5] = test system: BT-549 breast
[6] = test system: CAKI-1 renal
[7] = test system: CCRF-CEM leukemia
[8] = test system: COLO 205 colon
[9] = test system: DU-145 prostate
[10] = test system: EKVX NSCLC
[11] = test system: HCC-2998 colon
[12] = test system: HCT-116 colon
[13] = test system: HCT-15 colon
[14] = test system: HL-60(TB) leukemia
[15] = test system: HOP-62 NSCLC
[16] = test system: HOP-92 NSCLC
[17] = test system: HS 578T breast
[18] = test system: HT29 colon
[19] = test system: IGROV1 ovarian
[20] = test system: K-562 leukemia
[21] = test system: KM12 colon
[22] = test system: LOX IMVI melanoma
[23] = test system: M14 melanoma
[24] = test system: MALME-3M melanoma
[25] = test system: MCF7 breast
[26] = test system: MDA-MB-231 breast
[27] = test system: MDA-MB-435
[28] = test system: MOLT-4 leukemia
[29] = test system: NCI-H226 lung
[30] = test system: NCI-H23 lung
[31] = test system: NCI-H460 lung
[32] = test system: NCI-H522 lung
[33] = test system: NCI/ADR-RES ovarian
[34] = test system: OVCAR-3 ovarian
[35] = test system: OVCAR-4 ovarian
[36] = test system: OVCAR-5 ovarian
[37] = test system: OVCAR-8 ovarian
[38] = test system: PC-3 prostate
[39] = test system: RPMI-8226 leukemia
[40] = test system: RXF 393 renal
[41] = test system: SF-268 CNS
[42] = test system: SF-295 CNS
[43] = test system: SF-539 CNS
[44] = test system: SK-MEL-2 melanoma
[45] = test system: SK-MEL-28 melanoma
[46] = test system: SK-MEL-5 melanoma
[47] = test system: SK-OV-3 ovarian
[48] = test system: SN12C renal
[49] = test system: SNB-19 CNS
[50] = test system: SNB-75 CNS
[51] = test system: SR leukemia
[52] = test system: SW-620 colon
[53] = test system: T-47D breast
[54] = test system: TK-10 renal
[55] = test system: U251 CNS
[56] = test system: UACC-257 melanoma
[57] = test system: UACC-62 melanoma
[58] = test system: UO-31 renal

For `COc1cc2ncnc(Oc3cccc(NC(=O)Nc4cc(C(C)(C)C(F)(F)F)on4)c3)c2cc1OC`, which GI50 [1] is on record?
Its GI50 is 2.58 µM and 4.44 µM.

What about the TGI [1] of the same molecule?
The TGI was 14.7 µM and > 10 µM.

What about the GI50 [2] of the same molecule?
Its GI50 is 0.322 µM and 1.05 µM.

And the TGI [2]?
Its TGI is 1.36 µM and 3.62 µM.

What about the GI50 [3] of the same molecule?
Its GI50 is 1.9 µM and 2.74 µM.

What about the TGI [3] of the same molecule?
Its TGI is 40.8 µM and > 10 µM.

What about the GI50 [4] of the same molecule?
The GI50 was 0.438 µM and 0.598 µM.

And the TGI [4]?
The TGI was 12.9 µM and > 10 µM.

What about the GI50 [5] of the same molecule?
The GI50 was 2.4 µM and 3.89 µM.

And the TGI [5]?
Its TGI is 8.78 µM and > 10 µM.

And the GI50 [6]?
The GI50 was 1.06 µM and 1.44 µM.

What about the TGI [6] of the same molecule?
Its TGI is greater than 43 µM.

And the GI50 [7]?
Its GI50 is 3.06 µM and 3.26 µM.

And the TGI [7]?
The TGI was greater than 100 µM.

What about the GI50 [8] of the same molecule?
The GI50 was 0.103 µM and 0.153 µM.

And the TGI [8]?
The TGI was 5.71 µM and > 5.57 µM.

And the GI50 [9]?
Its GI50 is 3.31 µM and 3.84 µM.

And the TGI [9]?
The TGI was greater than 58.5 µM.

And the GI50 [10]?
The GI50 was 1.52 µM.

What about the TGI [10] of the same molecule?
Its TGI is greater than 10 µM.

And the GI50 [11]?
The GI50 was 2.29 µM and 3.28 µM.

And the TGI [11]?
The TGI was 14.9 µM and > 10 µM.

What about the GI50 [12] of the same molecule?
The GI50 was 0.618 µM and 0.843 µM.

What about the TGI [12] of the same molecule?
Its TGI is 11 µM and > 10 µM.

And the GI50 [13]?
The GI50 was 2.16 µM and 2.67 µM.

What about the TGI [13] of the same molecule?
Its TGI is 12.5 µM and > 10 µM.

And the GI50 [14]?
The GI50 was 2.7 µM and 0.816 µM.

And the TGI [14]?
Its TGI is greater than 28.5 µM.

And the GI50 [15]?
Its GI50 is 2.45 µM and 2.53 µM.

What about the TGI [15] of the same molecule?
Its TGI is 16.8 µM and > 10 µM.

And the GI50 [16]?
Its GI50 is 0.571 µM and 1.13 µM.

What about the TGI [16] of the same molecule?
The TGI was 3.41 µM and 5.29 µM.

What about the GI50 [17] of the same molecule?
The GI50 was 1.77 µM and 1.47 µM.

And the TGI [17]?
The TGI was 10.2 µM and > 7.23 µM.

And the GI50 [18]?
Its GI50 is 0.197 µM and 0.215 µM.

What about the TGI [18] of the same molecule?
The TGI was 6.9 µM and > 10 µM.

And the GI50 [19]?
The GI50 was 0.565 µM and 0.634 µM.

And the TGI [19]?
Its TGI is 4.61 µM and 3.69 µM.

What about the GI50 [20] of the same molecule?
Its GI50 is 0.0153 µM and 0.0146 µM.

What about the TGI [20] of the same molecule?
Its TGI is 25.9 µM and > 10 µM.

And the GI50 [21]?
Its GI50 is 3.4 µM and 5.28 µM.

What about the TGI [21] of the same molecule?
Its TGI is 14 µM and > 10 µM.

And the GI50 [22]?
Its GI50 is 0.319 µM and 0.421 µM.

What about the TGI [22] of the same molecule?
The TGI was 1.54 µM and 1.81 µM.

What about the GI50 [23] of the same molecule?
The GI50 was 0.105 µM and 0.18 µM.

And the TGI [23]?
The TGI was 1.47 µM and 1.91 µM.

And the GI50 [24]?
The GI50 was 0.0645 µM and 0.0851 µM.

What about the TGI [24] of the same molecule?
Its TGI is 0.929 µM and 1.17 µM.

What about the GI50 [25] of the same molecule?
Its GI50 is 2.79 µM and 3.18 µM.

What about the TGI [25] of the same molecule?
Its TGI is 15 µM and > 10 µM.

What about the GI50 [26] of the same molecule?
Its GI50 is 1.03 µM and 0.571 µM.

And the TGI [26]?
The TGI was 4.44 µM and 7.3 µM.

What about the GI50 [27] of the same molecule?
The GI50 was 0.335 µM and 0.484 µM.

And the TGI [27]?
The TGI was 5.74 µM and > 10 µM.

And the GI50 [28]?
Its GI50 is 2.46 µM and 2.06 µM.

And the TGI [28]?
Its TGI is greater than 29.7 µM.

And the GI50 [29]?
The GI50 was 1.13 µM and 1.67 µM.

What about the TGI [29] of the same molecule?
Its TGI is 33.7 µM and > 10 µM.

What about the GI50 [30] of the same molecule?
The GI50 was 1.28 µM and 1.43 µM.

What about the TGI [30] of the same molecule?
Its TGI is 11.7 µM and > 10 µM.

And the GI50 [31]?
The GI50 was 2.2 µM and 3.28 µM.

What about the TGI [31] of the same molecule?
Its TGI is 13.9 µM and > 10 µM.

What about the GI50 [32] of the same molecule?
The GI50 was 0.37 µM and 0.407 µM.

What about the TGI [32] of the same molecule?
The TGI was 12.6 µM and > 7.06 µM.

And the GI50 [33]?
Its GI50 is 2.99 µM and 2.86 µM.

And the TGI [33]?
The TGI was 24.6 µM and > 10 µM.

What about the GI50 [34] of the same molecule?
Its GI50 is 2.66 µM and 3.62 µM.

And the TGI [34]?
Its TGI is 16.5 µM and > 10 µM.

What about the GI50 [35] of the same molecule?
The GI50 was 2.15 µM and 2.8 µM.

What about the TGI [35] of the same molecule?
Its TGI is greater than 100 µM.

And the GI50 [36]?
Its GI50 is 1.1 µM and 1.01 µM.

And the TGI [36]?
Its TGI is 10.5 µM and > 10 µM.

And the GI50 [37]?
Its GI50 is 2.54 µM and 3.09 µM.

And the TGI [37]?
Its TGI is 21.5 µM and > 10 µM.

And the GI50 [38]?
Its GI50 is 2.65 µM and 3.68 µM.

And the TGI [38]?
Its TGI is 19.4 µM and > 10 µM.

And the GI50 [39]?
Its GI50 is 2.6 µM and 2.93 µM.

And the TGI [39]?
The TGI was 11.3 µM and > 10 µM.

What about the GI50 [40] of the same molecule?
The GI50 was 2.16 µM and 2.68 µM.

And the TGI [40]?
Its TGI is 8.14 µM and > 10 µM.

What about the GI50 [41] of the same molecule?
Its GI50 is 2.59 µM and 2.69 µM.

What about the TGI [41] of the same molecule?
Its TGI is 17.4 µM and > 10 µM.

And the GI50 [42]?
Its GI50 is 2.91 µM and 2.98 µM.

What about the TGI [42] of the same molecule?
The TGI was 13.1 µM and > 10 µM.

What about the GI50 [43] of the same molecule?
The GI50 was 2.75 µM and 3.14 µM.

And the TGI [43]?
The TGI was 12.9 µM and > 10 µM.

What about the GI50 [44] of the same molecule?
Its GI50 is 0.443 µM and 0.565 µM.

And the TGI [44]?
Its TGI is 2.26 µM and 3.06 µM.

What about the GI50 [45] of the same molecule?
Its GI50 is 0.179 µM and 0.201 µM.

And the TGI [45]?
The TGI was 8.03 µM and 3.58 µM.

What about the GI50 [46] of the same molecule?
Its GI50 is 1.3 µM and 1.45 µM.

And the TGI [46]?
Its TGI is 3.01 µM and 3.67 µM.

What about the GI50 [47] of the same molecule?
The GI50 was 0.612 µM and 0.962 µM.

What about the TGI [47] of the same molecule?
The TGI was 3.52 µM and 4.82 µM.

And the GI50 [48]?
Its GI50 is 1.61 µM and 1.69 µM.

And the TGI [48]?
The TGI was 11.9 µM and > 10 µM.

And the GI50 [49]?
Its GI50 is 4.5 µM and 4.99 µM.

What about the TGI [49] of the same molecule?
The TGI was greater than 100 µM.

And the GI50 [50]?
The GI50 was 2.79 µM and 6.27 µM.

And the TGI [50]?
The TGI was 13.5 µM and > 10 µM.

What about the GI50 [51] of the same molecule?
The GI50 was 2.95 µM and 2.6 µM.

And the TGI [51]?
Its TGI is 11.9 µM and > 10 µM.

What about the GI50 [52] of the same molecule?
Its GI50 is 1.21 µM and 1.6 µM.

And the TGI [52]?
The TGI was 20.8 µM and > 10 µM.

What about the GI50 [53] of the same molecule?
The GI50 was 1.96 µM and 1.67 µM.

What about the TGI [53] of the same molecule?
The TGI was 11.7 µM and > 10 µM.

And the GI50 [54]?
The GI50 was 0.948 µM and 0.82 µM.

What about the TGI [54] of the same molecule?
Its TGI is 4.67 µM and 4.32 µM.

And the GI50 [55]?
Its GI50 is 2.98 µM and 4.09 µM.

And the TGI [55]?
Its TGI is 14.1 µM and > 10 µM.

What about the GI50 [56] of the same molecule?
The GI50 was 0.132 µM and 0.235 µM.

What about the TGI [56] of the same molecule?
Its TGI is 1.08 µM and 3.58 µM.

What about the GI50 [57] of the same molecule?
Its GI50 is 0.0628 µM and 0.0978 µM.

What about the TGI [57] of the same molecule?
Its TGI is 1.59 µM and 1.34 µM.

And the GI50 [58]?
Its GI50 is 0.552 µM and 0.788 µM.

And the TGI [58]?
The TGI was 10.1 µM and > 7.68 µM.
